Assay results from patent US5874442A, “Tricyclic amides useful for inhibition of G-protein function and for treatment of proliferative disease” (Schering-Plough Corporation, priority 1996, dated 1999).
pIC50: −log10 of the molar value. Structures can show the parent of a compound that is named as a salt. Where two headings read alike, the source gives them in different places.

How the values were obtained:
[1] = system: DLD-1 (human colon carcinoma cells); test: In vivo anti-tumor studies, subcutaneous DLD-1 tumors in athymic nu/nu mice; parameters: species or system athymic nu/nu female mice; settings: Mus musculus, DLD-1, po, read-out: Average % Tumor Inhibition
Protocol: Tumor bearing animals are selected and randomized when the tumors are established. Animals are treated with vehicle (β-cyclodextrin for i.p. or corn oil for p.o.) only or with a compound of the present invention in vehicle four times a day (QID) for 7 days per week for 4 weeks. The percent inhibition of tumor growth relative to vehicle controls is determined by tumor measurements.

[2] = system: SW620-BAG human colon carcinoma cells expressing an activated K-ras gene; test: Cell mat assay, SW620-BAG tumor cells; format: cell-based; settings: Mat assay, 14 d, read-out: Tumor (SW620) IC50
Protocol: (§1) Compound-induced colony inhibition was assayed by addition of serial dilutions of compound directly to the growth medium 24 h after tumor cell planting, and incubating cells for an additional 14 d to allow colony formation. Assays were terminated by rinsing monolayers twice with phosphate-buffered saline (PBS), fixing the monolayers with a 1% glutaraldehyde solution in PBS, then visualizing tumor cells by staining with X-Gal (Price, J., et al., Lineage analysis in the vertebrate nervous system by retrovirus-mediated gene transfer, Proc. Natl. Acad. Sci.84, 156-160(1987)). […] Both IC50 values were obtained by determining the density of tumor cells and mat cells by visual inspection and enumeration of cells per colony and the number of colonies under the microscope.
(§2) Additional assays were carried out by following essentially the same procedure as described above, but with substitution of alternative indicator tumor cell lines in place of the T24-BAG cells. The assays were conducted using either DLD-1-BAG human colon carcinoma cells expressing as activated K-ras gene or SW620-BAG human colon carcinoma cells expressing an activated K-ras gene.

[3] = target: T1, farnesyl protein transferase (FPT) (Rattus norvegicus, UniProt Q02293+Q04631); test: In vitro enzyme assay: inhibition of farnesyl protein transferase (FPT), [3H]farnesyl transfer to Ras-CVLS; format: biochemical
T1 construct: were partially purified from rat brain by ammonium sulfate fractionation; from tissue; host or cells: rat brain (ammonium sulfate fractionation, Q-Sepharose)
Protocol: 1. In vitro enzyme assays:
Inhibition of farnesyl protein transferase and geranylgeranyl protein transferase.
Human farnesyl protein transferase was also expressed in E. coli, using cDNA clones encoding both the a and b subunits. […] Human farnesyl protein transferase was partially-purified from the soluble protein fraction of E. coli as described above. […] Two forms of val^12 -Ha-Ras protein were prepared as substrates for these enzymes, differing in their carboxy terminal sequence. One form terminated in cysteine-valine-leucine-serine (Ras-CVLS) the other in cystein-valine-leucine-leucine (Ras-CVLL). Ras-CVLS is a substrate for the farnesyl protein transferase while Ras-CVLL is a substrate for geranylgeranyl protein transferase I. The cDNAs encoding these proteins were constructed so that the proteins contain an amino-terminal extension of 6 histidine residues. Both proteins were expressed in Escherichia coli and purified using metal chelate affinity chromatography. The radiolabelled isoprenyl pyrophosphate substrates, [^3 H]farnesyl pyrophosphate and [^3 H] geranylgeranyl pyrophosphate, were purchased from DuPont/New England Nuclear.
The reaction was allowed to proceed for 30 minutes at room temperature and then stopped with 0.5 ml of 4% sodium dodecyl sulfate (SDS) followed by 0.5 ml of cold 30% TCA. Samples were allowed to sit on ice for 45 minutes and precipitated Ras protein was then collected on GF/C filter paper mats using a Brandel cell harvester. […] Percent inhibition was calculated relative to the DMSO vehicle control.

[4] = system: Ras-CVLS processing in COS cells; test: Cell-based COS cell assay: inhibition of Ras processing (Ras-CVLS); parameters: species or system monkey
Text: Transient expression of val^12 -Ha-Ras-CVLS and […] -Ha-Ras-CVLL in COS monkey kidney cells: Effect of farnesyl protein transferase inhibitors on Ras processing and on disordered cell growth induced by transforming Ras.
COS monkey kidney cells were transfected by electroporation with the plasmid pSV-SPORT (Gibco/BRL) containing a cDNA insert encoding either Ras-CVLS or Ras-CVLL, leading to transient overexpression of a Ras substrate for either farnesyl protein transferase or geranylgeranyl protein transferase I, respectively (see above).
Following electroporation, cells were plated into 6-well tissue culture dishes containing 1.5 ml of Dulbecco's-modified Eagle's media (GIBCO, Inc.) supplemented with 10% fetal calf serum and the appropriate farnesyl protein transferase inhibitors. After 24 hours, media was removed and fresh media containing the appropriate drugs was re-added.
48 hours after electroporation cells were examined under the microscope to monitor disordered cell growth induced by transforming Ras. Cells expressing transforming Ras become more rounded and refractile and overgrow the monolayer, reminiscent of the transformed phenotype. Cells were then photographed, washed twice with 1 ml of cold phosphate-buffered saline (PBS) and removed from the dish by scraping with a rubber policeman into 1 ml of a buffer containing 25 mM Tris, pH 8.0; 1 mM ethylenediamine tetraacetic acid; 1 mM phenylmethylsulfonyl fluoride; […]; and 0.1 mM pepstatin. Cells were lysed by homogenization and cell debris was removed by centrifugation at 2000× g for 10 min.
Cellular protein was precipitated by addition of ice-cold trichloroacetic acid and redissolved in […] of SDS-electrophoresis sample buffer. […] Proteins resolved on the gels were electroblotted onto nitrocellulose membranes for immunodetection.
After washing, membranes were incubated for one hour at room temperature with a 1:5000 dilution of secondary antibody, rabbit anti-rat lgG conjugated to horseradish peroxidase, in PBS containing 1% fetal calf serum. The presence of processed and unprocessed Ras-CVLS or Ras-CVLL was detected using a colorimetric peroxidase reagent (4-chloro-1-naphthol) as described by the manufacturer (Bio-Rad).

[5] = system: Normal human HEPM fibroblasts; test: Cell mat assay, normal cells (cell mat); format: cell-based; settings: Mat assay, 14 d, normal cells, read-out: Normal IC50
Protocol: as §1

[6] = system: T24-BAG4 human bladder carcinoma cells expressing an activated H-ras gene; test: Cell mat assay, T24-BAG4 tumor cells; format: cell-based; settings: Mat assay, 14 d, read-out: Tumor (T-24) IC50
Protocol: as §1

[7] = system: DLD-1-BAG human colon carcinoma cells; test: Cell mat assay, DLD-1-BAG tumor cells; format: cell-based; settings: Mat assay, 14 d, read-out: Tumor (DLD-1) IC50
Protocol: as §1, §2

[8] = […], Experiment No. 1, 50 mg/kg p.o., QID, 7 days per week for 4 weeks
[9] = […], Experiment No. 2, 10 mg/kg p.o., QID, 7 days per week for 4 weeks
[10] = […], Experiment No. 3, 50 mg/kg p.o., QID, 7 days per week for 4 weeks
[11] = […], Experiment No. 4, 10 mg/kg p.o., QID, 7 days per week for 4 weeks
[12] = Primates, COS, read-out: Inhibition of Ras Processing IC50, Table 3, COS cells
[13] = Table 3, COS cells, read-out: Inhibition of Ras Processing IC50

O=C(Cc1cc[n+]([O-])cc1)N1CCC(=C2c3ncc(Br)cc3CCc3cc(Cl)cc(Br)c32)CC1 (racemic) [Example 7]
inhibition in vivo at 50 mg/kg [1, 8]: 76.5%
inhibition in vivo at 10 mg/kg [1, 9]: 35.1%

NC(=O)N1CCC(CC(=O)N2CCN(C3c4ncc(Br)cc4CCc4cc(Cl)cc(Br)c43)CC2)CC1 (single isomer, unassigned) [Example 12B]
inhibition in vivo at 50 mg/kg [1, 8]: 83%
inhibition in vivo at 10 mg/kg [1, 9]: 37.7%

NC(=O)N1CCC(CC(=O)N2CCC(C3c4ccc(Cl)c(Br)c4CCc4cc(Br)cnc43)CC2)CC1 (single isomer, unassigned) [Example 13]
pIC50 ([2]; Homo sapiens, SW-620, 336 h): < 5.80
inhibition in vivo at 50 mg/kg [1, 8]: 61%
inhibition in vivo at 10 mg/kg [1, 9]: 7%

O=C(Cc1cc[n+]([O-])cc1)N1CCC(C2c3ccc(Cl)c(Br)c3CCc3cc(Br)cnc32)CC1 (single isomer, unassigned) [Example 14A · HCl salt]
pIC50 ([3]; Table 1, Ras-CVLS substrate, 30 minutes at room temperature, read-out: FPT IC50): > 8.51

O=C(Cc1cc[n+]([O-])cc1)N1CCC(C2c3ccc(Cl)c(Br)c3CCc3cc(Br)cnc32)CC1 (single isomer, unassigned) [Example 14A]
inhibition in vivo at 50 mg/kg [1, 8]: 59%
inhibition in vivo at 10 mg/kg [1, 9]: 48%

NC(=O)N1CCC(CC(=O)N2CCC(C3c4ccc(Cl)cc4C=Cc4cc(Br)cnc43)CC2)CC1 (centres unmarked) [Example 1]
inhibition in vivo at 50 mg/kg [1, 8]: 38.2%
inhibition in vivo at 10 mg/kg [1, 9]: 17.2%
inhibition in vivo at 50 mg/kg [1, 10]: 35.4%
inhibition in vivo at 10 mg/kg [1, 11]: 34%

NC(=O)N1CCC(CC(=O)N2CCC(C3c4ccc(Cl)cc4CCc4cc(Br)cnc43)CC2)CC1 (centres unmarked) [Example 4]
inhibition in vivo at 50 mg/kg [1, 8]: 41%
inhibition in vivo at 10 mg/kg [1, 9]: 18%
inhibition in vivo at 50 mg/kg [1, 10]: 41%
inhibition in vivo at 10 mg/kg [1, 11]: 14%

O=C(Cc1cc[n+]([O-])cc1)N1CCN([C@H]2c3ccc(Cl)c(Br)c3CCc3cc(Br)cnc32)CC1 [Example 5 · HCl salt]
pIC50 [4, 12]: 8.00

O=C(Cc1cc[n+]([O-])cc1)N1CCN([C@H]2c3ccc(Cl)c(Br)c3CCc3cc(Br)cnc32)CC1 [Example 5]
inhibition in vivo at 10 mg/kg ([1]; […]): 24%
inhibition in vivo at 50 mg/kg ([1]; […]): 38%

NC(=O)N1CCC(CC(=O)N2CCN([C@H]3c4ccc(Cl)c(Br)c4CCc4cc(Br)cnc43)CC2)CC1 [Example 6]
inhibition in vivo at 50 mg/kg [1, 8]: 61.2%
inhibition in vivo at 10 mg/kg [1, 9]: 35.4%

O=C(Cc1cc[n+]([O-])cc1)N1CCC(=C2c3ncc(Br)cc3CCc3cc(Cl)cc(Br)c32)CC1 [Example 7A]
inhibition in vivo at 10 mg/kg ([1]; Experiment No. 2, 10 mg/kg p.o., QID, 7 days per week for 4 weeks): 33.7%
pIC50 [4, 13]: < 6.00

O=C(Cc1cc[n+]([O-])cc1)N1CCC(=C2c3ncc(Br)cc3CCc3cc(Cl)cc(Br)c32)CC1 [Example 7B]
pIC50 [5]: < 4.60
pIC50 ([6]; Homo sapiens, 336 h): > 5.80

NC(=O)N1CCC(CC(=O)N2CCC(=C3c4ncc(Br)cc4CCc4cc(Cl)cc(Br)c43)CC2)CC1 [Example 8A]
pIC50 ([5]; Homo sapiens, Fibroblast, 336 h): < 4.60
pIC50 ([6]; Homo sapiens, 336 h): > 5.80
pIC50 ([7]; Homo sapiens, DLD-1, 336 h): > 5.80
pIC50 ([2]; Homo sapiens, SW-620, 336 h): 5.51
pIC50 [4, 13]: < 6.00

NC(=O)N1CCC(CC(=O)N2CCC(=C3c4ncc(Br)cc4CCc4cc(Cl)cc(Br)c43)CC2)CC1 [Example 8B]
pIC50 [5]: < 4.60
pIC50 [6]: > 5.80
pIC50 [7]: > 5.80
pIC50 [2]: 5.51
inhibition in vivo at 50 mg/kg [1, 8]: 62.5%
inhibition in vivo at 10 mg/kg [1, 9]: 29.2%
pIC50 [4, 13]: 6.55

O=C(Cc1cc[n+]([O-])cc1)N1CCC([C@@H]2c3ncc(Br)cc3CCc3cc(Cl)cc(Br)c32)CC1 [Example 9A]
pIC50 ([6]; Homo sapiens, 336 h): > 5.80
pIC50 ([4]; Primates, COS, Table 3, COS cells, read-out: Inhibition of Ras Processing IC50): 6.07
pIC50 [3]: < 7.06

O=C(Cc1cc[n+]([O-])cc1)N1CCC([C@H]2c3ncc(Br)cc3CCc3cc(Cl)cc(Br)c32)CC1 [Example 9]
inhibition in vivo at 50 mg/kg [1, 8]: 68%
inhibition in vivo at 10 mg/kg [1, 9]: 19%

O=C(Cc1cc[n+]([O-])cc1)N1CCN([C@H]2c3ncc(Br)cc3CCc3cc(Cl)cc(Br)c32)CC1 [Example 11A]
inhibition in vivo at 10 mg/kg ([1]; […]): 44.8%
inhibition in vivo at 50 mg/kg ([1]; […]): 63.8%

O=C(Cc1cc[n+]([O-])cc1)N1CCN([C@@H]2c3ncc(Br)cc3CCc3cc(Cl)cc(Br)c32)CC1 [Example 11B]
inhibition in vivo at 10 mg/kg ([1]; […]): 17%
inhibition in vivo at 50 mg/kg ([1]; […]): 38.8%

O=C(Cc1cc[n+]([O-])cc1)N1CCN(C2c3ncc(Br)cc3CCc3cc(Cl)cc(Br)c32)CC1 (centres unmarked) [Example 11]
pIC50 [4, 12]: > 6.60

NC(=O)N1CCC(CC(=O)N2CCC(C3c4ccc(Cl)c(Br)c4CCc4cc(Br)cnc43)CC2)CC1 (centres unmarked) [Example 13B]
pIC50 ([2]; Homo sapiens, SW-620, 336 h): < 5.51

O=C(Cc1cc[n+]([O-])cc1)N1CCN([C@H]2c3ccc(Cl)cc3CCc3cc(Br)cnc32)CC1 [Example 16B]
inhibition in vivo at 10 mg/kg ([1]; […]): 50%
inhibition in vivo at 50 mg/kg ([1]; […]): 77%

NC(=O)N1CCC(CC(=O)N2CCN([C@@H]3c4ccc(Cl)cc4CCc4cc(Br)cnc43)CC2)CC1 [Example 17]
pIC50 ([2]; Homo sapiens, SW-620, 336 h): 4.60
